Experiments:
[1] = system: extracellular regulated kinase (ERK); test: Western blot of ERK activation; assay type: cell-based, rat; details: 125 μM; 17 hours STS
Method: To determine the specificity of AQ2S mediated signaling changes, extracellular regulated kinase (ERK) was also examined. 17 hours STS abolished ERK activation.
Neurons used for Western blot analysis for grown in 6-well plates. Briefly, neurons were treated with experimental compounds for the indicated time/conditions. At the end of each experiment, neurons were washed in ice cold PBS and harvested in 65 μL RIPA buffer containing protease inhibitors, phosphatase inhibitors, and EDTA. Extracts were collected in 0.5 mL tubes and sonicated for 20-30 seconds. Cell extracts were then spun at 4° C./16,000 g/10 minutes and stored at −80° C. until use. Frozen extracts were thawed on ice and protein concentration measured using the BCA assay (PIERCE). […] of sample protein was loaded per well of a 7.5% SDS precast gel (Biorad), and run for 30 minutes to 1 hour at 200 V. Kaleidoscope protein standards (Biorad) were run parallel to neuron extracts. Proteins were then transferred to PDVF membranes (run at 100 V/4° C./1.5 hours). PDVF membranes were washed once in tris buffered saline (TBS) and blocked for 1 hour in tris buffered saline/tween-20 with 7.5% nonfat milk (TBS-T/milk). Blots were incubated overnight at 4° C. with primary antibodies in TBS-T/milk. Cell Signaling Technology: phospho-AKT473, AKT Total, phospho-ERK1/2, ERK Total, cleavage caspase-3. […]

[2] = system: mice; details: intraperitoneal; cited from earlier work
[3] = system: primary rat cortical neurons; test: AQ2S alone on fluorescent and luminescent viability assays (luciferase interference); assay type: cell-based
Method: To test if AQ2S mediated inhibition of caspase3/7 was artifact, the effect of different AQ2S concentrations on 2 different cell viability tests were compared (one test fluorometric and the other luminescent). AQ2S was incubated at the indicated concentrations for 24 hours. After 24 hours, the cell viability reagent was added and cell survival assayed. […] Finally, to replicate the exact experimental conditions used in injury studies, neurons were first incubated with the CellTiter Blue reagent for 2 hours. Subsequently, the viability-GLO reagent was added for 1 hour and luminescence measured (i.e. viability reagents were mixed together; FIG. 11C).

[4] = system: 4-HNE; test: Lipid peroxidation (4-HNE western blot) in neurons; assay type: cell-based, rat
Method: To test if AQ2S promotes lipid peroxidation in neurons, at D.I.V. 12, culture media was exchanged with Neurobasal/B27 (−AO) in the absence or presence of […] for 48 hours. D.I.V. 14 neurons were harvested and analyzed for 4-HNE levels.
Injury (e.g. brain ischemia), robustly increases endogenous reactive oxygen species (ROS) levels. ROS may promote the formation of deleterious quinone radicals and increase lipid peroxidation. The potential enhancement by AQ2S of lipid peroxidation induced by 200 μM H2O2 was evaluated. D.I.V. 13 neurons were treated for 4.5 hours with 200 μM H2O2 in fresh neurobasal/B27 (−AO) in the presence or absence of 125 μM AQ2S. 200 μM H2O2 increased 4-HNE levels. The asterisk in FIG. 17b indicates an approximate 40-45 KDa band, particularly, sensitive to treatment.
Neurons used for Western blot analysis for grown in 6-well plates. Briefly, neurons were treated with experimental compounds for the indicated time/conditions. At the end of each experiment, neurons were washed in ice cold PBS and harvested in 65 μL RIPA buffer containing protease inhibitors, phosphatase inhibitors, and EDTA. Extracts were collected in 0.5 mL tubes and sonicated for 20-30 seconds. Cell extracts were then spun at 4° C./16,000 g/10 minutes and stored at −80° C. until use. Frozen extracts were thawed on ice and protein concentration measured using the BCA assay (PIERCE). […]

[5] = system: caspase-3; test: STS-induced caspase-3 (3/7) activity in neurons; assay type: cell-based, rat
Method: The Caspase3/7-GLO assay uses the exact same reagents as the CellTiter-GLO assay accept for the addition of a luciferin substrate crosslinked to an amino acid caspase cleavage target. Activation of caspases frees luciferin. Luciferin can then be oxidized by luciferase, thereby initiating a light reaction. Luminescence was measured using a luminometer.

[6] = system: primary rat cortical neurons; test: STS injury, neuronal viability and cytotoxicity
Method: At D.I.V. 11, ½ media was collected (conditioned media) and mixed with an equal volume fresh neurobasal media (to make the 24 hour treatment media). STS was prepared at the desired concentration in treatment media, with or without experimental drugs (AQ2S or LY294002). The remaining growth maintenance media was replaced with 100 μL, of treatment media per well of a 96-well plate (or 2 mL for a six-well plate) for 24 hours.
The LDH Cytotoxicity Assay Kit II was purchased from Abcam (Cambridge, Mass., USA). Neurons were cultured in 96-well format and subjected to STS injury ±AQ2S for 24 hours (in 100 μL, total media volume). At 23 hours maximum LDH release (positive control) was prepared by adding 10 μL, cell lysis reagent directly to a few non-injured wells (i.e., no STS or AQ2S). At the end of the 24 hour injury period, 80 μL, of media was transferred to a new 96-well plate. Plates were spun at ˜500 g for 5 minutes. 10 μL, of cell culture treatment media was added to a new black-walled plate and advanced WST detection reagent added. The mix was incubated for ˜15 minutes and absorbance measured (OD 450 nm). Fresh culture media was used as a negative control. Cytotoxicity was calculated using the standard formula: cytotoxicity %=(sample LDH−negative-control LDH)/(maximum LDH release−negative-control LDH)×100.

[7] = system: primary rat cortical neurons; test: Stretch injury (in vitro TBI), LDH release and MTT metabolism; assay type: cell-based; details: 24 hours after injury
Method: Rat cortical neurons are isolated from E16 embryos, and plated on silicone membranes (with defined elastic properties) held in a custom made stainless steel chamber. DIV 7-9 neurons are subjected to a (computer controlled) preset stretch injury; strain rate 10 s^−1 and 50% membrane deformation. AQ2S or DMSO (vehicle control) was added before (pre-treatment) or after post-treatment) injury, Cell death was assayed ˜24 hours after injury by measuring 1) extracellular LDH in the culture media (released from dying/dead cells), 2) caspase-3/7 activation (a protease involved in execution of cell death), and 3) MTT metabolism (a reagent metabolized by living cells).
LDH is released by dying or injured cells. Primary rat cortical neurons were grown on a custom made stretch-injury device (An in vitro model of TBI). Neurons were pre-treated with 75 μM AQ2S or vehicle only (DMSO control) for 30 minutes, and subjected to a defined stretch injury. 24 hours after injury LDH levels were measured. […] Data was analyzed using a T-test; ***p<0.0001. […]
(3-(4,5-Dimethylthiazol-2-yl)-2,5-diphenyltetrazolium bromide; MTT) is metabolized in living but not dying cells. […] MTT metabolism was measured 24 hours after injury. […] Data was analyzed using ANOVA and Fisher LSD post-hoc test. […]

[8] = 150 nM STS 24 hours, co-treatment 75 μM

Structure (SMILES): O=C1c2ccccc2C(=O)c2cc(S(=O)(=O)O)ccc21 [AQ2S, anthraquinone-2-sulfonic acid]
- ERK activation [1]: did not prevent STS-mediated ERK inhibition
- Acute LD50 [2]: 630 mg/kg
- decrease in luminescent signal compared to DMSO controls ([3]; CellTiter Blue and viability-GLO reagents combined): 13-17%
- viability, fluorometric CellTiter Blue assay ([3]; compound alone 24 hours, all concentrations used): none of the AQ2S concentrations used inhibited viability below control levels
- 4-HNE staining ([4]; 200 μM H2O2 4.5 hours, 125 μM): did not significantly up-regulate 4-HNE staining
- basal level of 4-HNE ([4]; uninjured, 125 AQ2S 48 hours): did not significantly increase the basal level of 4-HNE
- caspase-3 activity [5, 8]: significantly reduced baseline and injury activity levels
- STS-induced caspase-3 activation ([5]; 250 nM STS 24 hours): completely blocked STS-induced caspase-3 activation
- potency among caspase-3, -8 and -9 ([5]; 75 μM): greatest potency against caspase-3
- STS injury, LDH release [6, 8]: significantly reduced 24 hour STS injury
- STS injury, cellular ATP levels (GLO-Viability Assay) [6, 8]: significantly reduced 24 hour STS injury
- STS injury, live-cell protease activity (CellTiter-Fluor) [6, 8]: significantly reduced 24 hour STS injury
- STS injury, resazurin metabolism (CellTiter Blue) [6, 8]: significantly reduced 24 hour STS injury
- reduction in viability compared with non-injured controls ([6]; 250 nM STS 24 hours, AQ2S-treated neurons): 17.6%
- cell death after STS ([6]; 250 nM STS 24 hours, co-treatment 75 or 125 μM): significantly reduced cell death
- cell viability, comparison of neuroprotectants ([6]; 250 nM STS co-administered 24 hours): increased cell viability
- neuronal viability, high dose STS ([6]; 500 nM STS 24 hours, co-treatment 125 μM and 150 μM): significantly (but only slightly) increased neuronal viability
- baseline viability or cytotoxicity ([6]; compound alone, no STS, 75 μM, 24 h): did not significantly alter baseline viability or cytotoxicity
- concentration of maximal protection ([6]; neuroprotection in neuron injury assays): 75 to 125 µM
- stretch injury induced LDH release (neuronal death) ([7]; 75 μM pre-treated 30 minutes): significantly reduced neuronal death
- MTT metabolism after stretch injury ([7]; 30 minutes before or 30 minutes after injury): increased by pre- or post-treatment with AQ2S
